In ChEMBL document CHEMBL1201861, “Genomics of Drug Sensitity in Cancer screening data, Wellcome Trust Sanger Institute”:

Tests used:
Assay in all cases: cells
DBTRG-05MG = format: functional, cell-based; conditions: Homo sapiens;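 also: cell viability assay measuring growth inhibition of human DBTRG-05MG cells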
Description: SANGER: Inhibition of human DBTRG-05MG cell growth in a cell viability assay.

DK-MG = format: functional, cell-based; conditions: Homo sapiens;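 also: growth inhibition of DK-MG cells, read out with a cell viability assay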
Description: SANGER: Inhibition of human DK-MG cell growth in a cell viability assay.

Detroit 562 = format: functional, cell-based; conditions: Homo sapiens;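 also: growth inhibition of human Detroit 562 cells, read out by a cell viability assay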
Description: SANGER: Inhibition of human Detroit562 cell growth in a cell viability assay.

HCC1954 = format: functional, cell-based; conditions: Homo sapiens;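 also: growth inhibition of human HCC1954 cells, read out with a cell viability assay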
Description: SANGER: Inhibition of human HCC1954 cell growth in a cell viability assay.

HCT-15 = format: functional, cell-based; conditions: Homo sapiens;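 also: cell viability readout, IC50 reflecting suppression of HCT-15 cell growth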
Description: SANGER: Inhibition of human HCT-15 cell growth in a cell viability assay.

HT-1080 = format: functional, cell-based; conditions: Homo sapiens
Description: SANGER: Inhibition of human HT-1080 cell growth in a cell viability assay.

HT-1376 = format: functional, cell-based; conditions: Homo sapiens
Description: SANGER: Inhibition of human HT-1376 cell growth in a cell viability assay.

KMOE-2 = format: functional, cell-based, Homo sapiens; conditions: Homo sapiens, KMOE-2;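 also: growth inhibition of human KMOE-2 cells, read out with a cell viability assay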
Description: SANGER: Inhibition of human KMOE-2 cell growth in a cell viability assay.

KYSE-180 = format: functional, cell-based; conditions: Homo sapiens;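 also: growth inhibition of KYSE-180 cells, read out with a cell viability assay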
Description: SANGER: Inhibition of human KYSE-180 cell growth in a cell viability assay.

KYSE-450 = format: functional, cell-based; conditions: Homo sapiens;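 also: cell growth inhibition measured by a viability assay in human KYSE-450 cells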
Description: SANGER: Inhibition of human KYSE-450 cell growth in a cell viability assay.

MCF7 = format: functional, cell-based; conditions: Homo sapiens;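 also: growth inhibition of human MCF7 cells, read out with a cell viability assay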
Description: SANGER: Inhibition of human MCF7 cell growth in a cell viability assay.

ME-180 = format: functional, cell-based; conditions: Homo sapiens;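 also: cell viability assay measuring growth inhibition of ME-180 cells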
Description: SANGER: Inhibition of human ME-180 cell growth in a cell viability assay.

MFH-ino = format: functional, cell-based, Homo sapiens; conditions: Homo sapiens, MFH-ino;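 also: growth inhibition of human MFH-ino cells, read out by a cell viability assay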
Description: SANGER: Inhibition of human MFH-ino cell growth in a cell viability assay.

MIA PaCa-2 = format: functional, cell-based; conditions: Homo sapiens;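 also: growth inhibition of MIA PaCa-2 cells, read out with a cell viability assay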
Description: SANGER: Inhibition of human MIA-PaCa-2 cell growth in a cell viability assay.

MKN-28 = format: functional, cell-based; conditions: Homo sapiens;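 also: cell viability assay read-out, IC50 reflects suppression of growth of human MKN-28 cells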
Description: SANGER: Inhibition of human MKN28 cell growth in a cell viability assay.

NB7 = format: functional, cell-based, Homo sapiens; conditions: Homo sapiens, NB7;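 also: growth inhibition of NB7 cells, read out with a cell viability assay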
Description: SANGER: Inhibition of human NB7 cell growth in a cell viability assay.

NCI-H1563 = format: functional, cell-based; conditions: Homo sapiens;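 also: growth inhibition of human NCI-H1563 cells, read out with a cell viability assay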
Description: SANGER: Inhibition of human NCI-H1563 cell growth in a cell viability assay.

NCI-H1793 = format: functional, cell-based; conditions: Homo sapiens;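 also: cell growth inhibition, read out by a cell viability assay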
Description: SANGER: Inhibition of human NCI-H1793 cell growth in a cell viability assay.

NCI-H1993 = format: functional, cell-based; conditions: Homo sapiens;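 also: growth inhibition of the cancer cell line, assessed with a cell viability assay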
Description: SANGER: Inhibition of human NCI-H1993 cell growth in a cell viability assay.

NCI-H2009 = format: functional, cell-based; conditions: Homo sapiens;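 also: cell viability assay measuring inhibition of NCI-H2009 cell growth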
Description: SANGER: Inhibition of human NCI-H2009 cell growth in a cell viability assay.

NCI-H2228 = format: functional, cell-based; conditions: Homo sapiens;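 also: growth inhibition of human NCI-H2228 cells, read out by a cell viability assay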
Description: SANGER: Inhibition of human NCI-H2228 cell growth in a cell viability assay.

NCI-H460 = format: functional, cell-based; conditions: Homo sapiens;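 also: cell viability assay scoring growth inhibition of human NCI-H460 cells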
Description: SANGER: Inhibition of human NCI-H460 cell growth in a cell viability assay.

NCI-H520 = format: functional, cell-based; conditions: Homo sapiens;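 also: growth inhibition of NCI-H520 cells, measured by a cell viability assay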
Description: SANGER: Inhibition of human NCI-H520 cell growth in a cell viability assay.

OAW-42 = format: functional, cell-based; conditions: Homo sapiens;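 also: growth inhibition of OAW-42 cells, read out with a cell viability assay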
Description: SANGER: Inhibition of human OAW-42 cell growth in a cell viability assay.

OVCAR-5 = format: functional, cell-based; conditions: Homo sapiens;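 also: growth inhibition of human OVCAR-5 cells, read out with a cell viability assay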
Description: SANGER: Inhibition of human OVCAR-5 cell growth in a cell viability assay.

PA-1 = format: functional, cell-based; conditions: Homo sapiens;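 also: IC50 for suppression of PA-1 cell proliferation, determined with a cell viability read-out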
Description: SANGER: Inhibition of human PA-1 cell growth in a cell viability assay.

PANC-03-27 = format: functional, cell-based; conditions: Homo sapiens
Description: SANGER: Inhibition of human PANC-03-27 cell growth in a cell viability assay.

Panc1005 = format: functional, cell-based; conditions: Homo sapiens;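 also: growth inhibition of human PANC-10-05 cells, measured by a cell viability assay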
Description: SANGER: Inhibition of human PANC-10-05 cell growth in a cell viability assay.

RMG-I = format: functional, cell-based; conditions: Homo sapiens;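 also: growth inhibition of human RMG-I cells, read out with a cell viability assay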
Description: SANGER: Inhibition of human RMG-I cell growth in a cell viability assay.

SK-LU-1 = format: functional, cell-based; conditions: Homo sapiens;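 also: cell viability assay measuring growth inhibition of human SK-LU-1 cells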
Description: SANGER: Inhibition of human SK-LU-1 cell growth in a cell viability assay.

SK-MES-1 = format: functional, cell-based; conditions: Homo sapiens;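 also: growth inhibition of human SK-MES-1 cells, read out with a cell viability assay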
Description: SANGER: Inhibition of human SK-MES-1 cell growth in a cell viability assay.

SW1573 = format: functional, cell-based; conditions: Homo sapiens;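 also: growth inhibition of SW1573 cells, read out with a cell viability assay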
Description: SANGER: Inhibition of human SW1573 cell growth in a cell viability assay.

SW1783 = format: functional, cell-based; conditions: Homo sapiens;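 also: cell growth inhibition measured with a viability assay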
Description: SANGER: Inhibition of human SW1783 cell growth in a cell viability assay.

SW-620 = format: functional, cell-based; conditions: Homo sapiens;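 also: growth inhibition of human SW-620 cells, measured by a cell viability assay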
Description: SANGER: Inhibition of human SW620 cell growth in a cell viability assay.

5637 = format: functional, cell-based; conditions: Homo sapiens
Description: SANGER: Inhibition of human 5637 cell growth in a cell viability assay.

BFTC-909 = format: functional, cell-based; conditions: Homo sapiens
Description: SANGER: Inhibition of human BFTC-909 cell growth in a cell viability assay.

BT-20 = format: functional, cell-based; conditions: Homo sapiens;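 also: cell viability assay measuring suppression of growth in human BT-20 cells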
Description: SANGER: Inhibition of human BT-20 cell growth in a cell viability assay.

C32 = format: functional, cell-based; conditions: Homo sapiens;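 also: cell viability assay, with IC50 reflecting inhibition of C32 cell growth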
Description: SANGER: Inhibition of human C32 cell growth in a cell viability assay.

CAL-12T = format: functional, cell-based; conditions: Homo sapiens;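 also: growth inhibition of human CAL-12T cells, read out with a cell viability assay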
Description: SANGER: Inhibition of human CAL-12T cell growth in a cell viability assay.

CAL-62 = format: functional, cell-based; conditions: Homo sapiens;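 also: growth inhibition of CAL-62 cells, read out with a cell viability assay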
Description: SANGER: Inhibition of human CAL-62 cell growth in a cell viability assay.

U-251 = format: functional, cell-based; conditions: Homo sapiens;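 also: growth inhibition of human U-251 cells, read out through a cell viability assay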
Description: SANGER: Inhibition of human U251 cell growth in a cell viability assay.

VMRC-RCZ = format: functional, cell-based; conditions: Homo sapiens;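 also: growth inhibition measured with a cell viability assay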
Description: SANGER: Inhibition of human VMRC-RCZ cell growth in a cell viability assay.

CC1=C(/C=C/C(C)=C/C=C/C(C)=C/C(=O)O)C(C)(C)CCC1 [TRETINOIN]
IC50 (DBTRG-05MG): > 10000 nM
IC50 (DK-MG): > 10000 nM
IC50 (Detroit 562): > 10000 nM
IC50 (HCC1954): > 10000 nM
IC50 (HCT-15): > 10000 nM
IC50 (HT-1080): > 10000 nM
IC50 (HT-1376): > 10000 nM
IC50 (KMOE-2): > 10000 nM
IC50 (KYSE-180): 6700 nM
IC50 (KYSE-450): > 10000 nM
IC50 (MCF7): > 10000 nM
IC50 (ME-180): > 10000 nM
IC50 (MFH-ino): > 10000 nM
IC50 (MIA PaCa-2): > 10000 nM
IC50 (MKN-28): > 10000 nM
IC50 (NB7): > 10000 nM
IC50 (NCI-H1563): > 10000 nM
IC50 (NCI-H1793): > 10000 nM
IC50 (NCI-H1993): > 10000 nM
IC50 (NCI-H2009): > 10000 nM
IC50 (NCI-H2228): > 10000 nM
IC50 (NCI-H460): > 10000 nM
IC50 (NCI-H520): > 10000 nM
IC50 (OAW-42): > 10000 nM
IC50 (OVCAR-5): > 10000 nM
IC50 (PA-1): > 10000 nM
IC50 (PANC-03-27): > 10000 nM
IC50 (Panc1005): > 10000 nM
IC50 (RMG-I): > 10000 nM
IC50 (SK-LU-1): > 10000 nM
IC50 (SK-MES-1): > 10000 nM
IC50 (SW1573): > 10000 nM
IC50 (SW1783): > 10000 nM
IC50 (SW-620): > 10000 nM
IC50 5637: > 10000 nM
IC50 (BFTC-909): > 10000 nM
IC50 (BT-20): > 10000 nM
IC50 (C32): > 10000 nM
IC50 (CAL-12T): > 10000 nM
IC50 (CAL-62): > 10000 nM
IC50 (U-251): > 10000 nM
IC50 (VMRC-RCZ): > 10000 nM

NC(=O)Nc1cc(-c2cccc(F)c2)sc1C(=O)N[C@H]1CCCNC1 [AZD-7762]
IC50 (DBTRG-05MG): > 2000 nM
IC50 (DK-MG): > 2000 nM
IC50 (Detroit 562): 333 nM
IC50 (HCC1954): > 2000 nM
IC50 (HCT-15): > 2000 nM
IC50 (HT-1080): 493 nM
IC50 (HT-1376): > 2000 nM
IC50 (KMOE-2): 1110 nM
IC50 (KYSE-180): 402 nM
IC50 (KYSE-450): 1050 nM
IC50 (MCF7): > 2000 nM
IC50 (ME-180): 1720 nM
IC50 (MFH-ino): > 2000 nM
IC50 (MIA PaCa-2): 375 nM
IC50 (MKN-28): > 2000 nM
IC50 (NB7): > 2000 nM
IC50 (NCI-H1563): 470 nM
IC50 (NCI-H1793): 1610 nM
IC50 (NCI-H1993): > 2000 nM
IC50 (NCI-H2009): > 2000 nM
IC50 (NCI-H2228): 1290 nM
IC50 (NCI-H460): 1530 nM
IC50 (NCI-H520): 1380 nM
IC50 (OAW-42): 937 nM
IC50 (OVCAR-5): 139 nM
IC50 (PA-1): 750 nM
IC50 (PANC-03-27): 143 nM
IC50 (Panc1005): > 2000 nM
IC50 (RMG-I): 1910 nM
IC50 (SK-LU-1): 84.2 nM
IC50 (SK-MES-1): 443 nM
IC50 (SW1573): 942 nM
IC50 (SW1783): 933 nM
IC50 (SW-620): 662 nM
IC50 5637: 193 nM
IC50 (BFTC-909): 588 nM
IC50 (BT-20): 1720 nM
IC50 (C32): 347 nM
IC50 (CAL-12T): 433 nM
IC50 (CAL-62): 571 nM
IC50 (U-251): > 2000 nM
IC50 (VMRC-RCZ): 906 nM

NC(=O)c1ccc(N(C(N)=O)c2c(F)cccc2F)nc1-c1ccc(F)cc1F [VX-702]
IC50 (DBTRG-05MG): > 2000 nM
IC50 (DK-MG): > 2000 nM
IC50 (Detroit 562): > 2000 nM
IC50 (HCC1954): > 2000 nM
IC50 (HCT-15): > 2000 nM
IC50 (HT-1080): > 2000 nM
IC50 (HT-1376): > 2000 nM
IC50 (KMOE-2): > 2000 nM
IC50 (KYSE-180): > 2000 nM
IC50 (KYSE-450): > 2000 nM
IC50 (MCF7): > 2000 nM
IC50 (ME-180): > 2000 nM
IC50 (MFH-ino): > 2000 nM
IC50 (MIA PaCa-2): > 2000 nM
IC50 (MKN-28): > 2000 nM
IC50 (NB7): > 2000 nM
IC50 (NCI-H1563): > 2000 nM
IC50 (NCI-H1793): > 2000 nM
IC50 (NCI-H1993): > 2000 nM
IC50 (NCI-H2009): > 2000 nM
IC50 (NCI-H2228): > 2000 nM
IC50 (NCI-H460): > 2000 nM
IC50 (NCI-H520): > 2000 nM
IC50 (OAW-42): > 2000 nM
IC50 (OVCAR-5): > 2000 nM
IC50 (PA-1): > 2000 nM
IC50 (PANC-03-27): > 2000 nM
IC50 (Panc1005): > 2000 nM
IC50 (RMG-I): > 2000 nM
IC50 (SK-LU-1): > 2000 nM
IC50 (SK-MES-1): > 2000 nM
IC50 (SW1573): > 2000 nM
IC50 (SW1783): > 2000 nM
IC50 (SW-620): > 2000 nM
IC50 5637: > 2000 nM
IC50 (BFTC-909): > 2000 nM
IC50 (BT-20): > 2000 nM
IC50 (C32): > 2000 nM
IC50 (CAL-12T): > 2000 nM
IC50 (CAL-62): > 2000 nM
IC50 (U-251): > 2000 nM
IC50 (VMRC-RCZ): > 2000 nM

CN(NC(=O)CC(=O)NN(C)C(=S)c1ccccc1)C(=S)c1ccccc1 [ELESCLOMOL]
IC50 (DBTRG-05MG): 9.77 nM
IC50 (DK-MG): 17.1 nM
IC50 (Detroit 562): 68.9 nM
IC50 (HCC1954): > 200 nM
IC50 (HCT-15): 150 nM
IC50 (HT-1080): 4.99 nM
IC50 (HT-1376): > 200 nM
IC50 (KMOE-2): 145 nM
IC50 (KYSE-180): 23.8 nM
IC50 (KYSE-450): 39 nM
IC50 (MCF7): 31.4 nM
IC50 (ME-180): 16.2 nM
IC50 (MFH-ino): > 200 nM
IC50 (MIA PaCa-2): 17.1 nM
IC50 (MKN-28): 14 nM
IC50 (NB7): 14.4 nM
IC50 (NCI-H1563): 4.13 nM
IC50 (NCI-H1793): > 200 nM
IC50 (NCI-H1993): > 200 nM
IC50 (NCI-H2009): > 200 nM
IC50 (NCI-H2228): 30.9 nM
IC50 (NCI-H460): > 200 nM
IC50 (NCI-H520): 135 nM
IC50 (OAW-42): 81.6 nM
IC50 (OVCAR-5): 1.83 nM
IC50 (PA-1): 8.84 nM
IC50 (PANC-03-27): 39.9 nM
IC50 (Panc1005): 110 nM
IC50 (RMG-I): > 200 nM
IC50 (SK-LU-1): 10.3 nM
IC50 (SK-MES-1): > 200 nM
IC50 (SW1573): 10.7 nM
IC50 (SW1783): 139 nM
IC50 (SW-620): 40.7 nM
IC50 5637: 35.5 nM
IC50 (BFTC-909): 63.5 nM
IC50 (BT-20): 35.2 nM
IC50 (C32): 26.3 nM
IC50 (CAL-12T): 63 nM
IC50 (CAL-62): 55.2 nM
IC50 (U-251): 9.86 nM
IC50 (VMRC-RCZ): 108 nM

Cc1ccc(-n2nc(C(C)(C)C)cc2NC(=O)Nc2ccc(OCCN3CCOCC3)c3ccccc23)cc1 [DORAMAPIMOD]
IC50 (DBTRG-05MG): > 10000 nM
IC50 (DK-MG): > 10000 nM
IC50 (Detroit 562): > 10000 nM
IC50 (HCC1954): > 10000 nM
IC50 (HCT-15): > 10000 nM
IC50 (HT-1080): > 10000 nM
IC50 (HT-1376): > 10000 nM
IC50 (KYSE-180): > 10000 nM
IC50 (KYSE-450): > 10000 nM
IC50 (MCF7): > 10000 nM
IC50 (ME-180): > 10000 nM
IC50 (MFH-ino): > 10000 nM
IC50 (MIA PaCa-2): > 10000 nM
IC50 (MKN-28): > 10000 nM
IC50 (NB7): > 10000 nM
IC50 (NCI-H1563): > 10000 nM
IC50 (NCI-H1793): > 10000 nM
IC50 (NCI-H1993): > 10000 nM
IC50 (NCI-H2009): > 10000 nM
IC50 (NCI-H2228): > 10000 nM
IC50 (NCI-H460): > 10000 nM
IC50 (NCI-H520): > 10000 nM
IC50 (OAW-42): > 10000 nM
IC50 (OVCAR-5): > 10000 nM
IC50 (PA-1): > 10000 nM
IC50 (PANC-03-27): > 10000 nM
IC50 (Panc1005): > 10000 nM
IC50 (RMG-I): > 10000 nM
IC50 (SK-LU-1): > 10000 nM
IC50 (SK-MES-1): > 10000 nM
IC50 (SW1573): > 10000 nM
IC50 (SW1783): > 10000 nM
IC50 (SW-620): > 10000 nM
IC50 5637: > 10000 nM
IC50 (BFTC-909): > 10000 nM
IC50 (BT-20): > 10000 nM
IC50 (C32): > 10000 nM
IC50 (CAL-12T): > 10000 nM
IC50 (CAL-62): > 10000 nM
IC50 (U-251): > 10000 nM
IC50 (VMRC-RCZ): > 10000 nM
